Measurements reported in patent US20080279961A1, “TELOMERE TARGETING AGENTS AS STEM CELLS DIRECTED TREATMENTS” (priority 2007, published 2008).
Entries after “also recorded” stand apart in the source; their conditions may differ.

Columns and labels:
HEK293T cells = test: MTT proliferation assay (monolayer); assay type: cell-based, human
Method: To assess RHPS4 effects on normal stem cells, the human embryonic kidney cell line HEK293T was exposed to drug in the MTT and HTCA assays, and tested RHPS4 effects on colony forming units of the mononuclear cell fraction of human cord blood in methyl cellulose (FIG. 2C). The cord blood colony assay was performed with and without colony stimulating growth factors, only methylcellulose containing growth factors grew colonies. […] Additionally, in normal cell types as compared to tumor cells, low and pharmacodynamically relevant concentrations of RHPS4 (0.01 to 1 microM) did induce colony formation (FIG. 2C). To assure that the induction of colony growth by RHPS4 in normal stem cells is reproducible, cord blood from three different individuals and HEK293T cells from different passages were used. Data shown in FIG. 2C represent the mean and standard deviation from three independent experiments. […] However, the plating efficiency (actual number of colonies growing per total number of cells seeded) varied among the experiments and therefore the results are shown as % of control growth. E.g. HEK293T control colony growth ranged from a mean number of 54 to 463 colonies per well, but the least percentage (cut-off level) of growth induction by RHPS4 observed in either, the individual HEK293T or the cord blood experiments, was 150%. […]

[1] = tested on: telomeres of UXF1138L xenografts; test: telomere restriction fragment (TRF) length by Southern blot in primary cultures from xenografts; assay type: in vivo, xenograft
Method: Upon termination of the experiment, which was when tumors reached a volume of 1.5 cm in diameter (day 28), RHPS4 treated tumor tissue and control tumors were excised, minced and digested using a mixture of collagenase (123 U/ml), DNase (375 U/ml), and hyaluronidase (290 U/ml) in RPMI 1640 medium at 37° C. for 3 hrs. All enzymes were purchased from Roche, Indianapolis Ind.). Primary cultures as well as clonogenic growth assays were prepared from the resulting single cell suspensions. Primary cultures were used for analysis of telomere length. In addition, RHPS4 treated tumors (5 mg/kg/d) and control were propagated into new animals for up to three times. The control mouse group was always derived from untreated tumor fragments, but from the same initial passage as were the RHPS4 treated tumors (FIG. 1B).
To measure TRF (Telomere Restriction Fragment)-length, genomic DNA was isolated from 3-7 day primary cultures established from single cell suspensions of control and treated UXF1138L xenograft tissues using the DNeasy Tissue Kit (Qiagen, Hilden, Germany). Southern blotting was performed with the Telo-TAGGG-telomere length kit from Roche (Penzberg, Germany) and analyzed as described before (Burger et al., 2005; Cookson et al., 2005).

UXF1138L tumors = test: atypical mitoses counted in xenograft sections; assay type: in vivo, nude mice
Method: Upon termination of the experiments, tumors from 3 mice per group were excised and immediately fixed in 10% PBS buffered formalin for 24 hours followed by routine paraffin embedding procedures (Burger et al. 2005).
Five-micrometer paraffin sections were cut, dewaxed, and antigen retrieval done in citrate buffer (pH 6.0) in the microwave for 30 minutes. Sections were then treated with methanol/3% hydrogen peroxide to remove endogenous peroxidase and blocked with 10% normal goat serum in PBS and stained. PBS was used as washing buffer. Cells were incubated overnight at 4° C. with a monoclonal anti-hTERT antibody (class IgG2a, kappa, Novacastra, Newcastle, UK) diluted 1:40 in PBS. Mouse immunoglobulin G2a isotype control (Santa Cruz) was used as negative control. hTERT-specific immunoperoxidase staining was developed using the DAKO Envision+ system (Envision 3,3V-diaminobenzidine Plus kit mouse, DAKO Cytomation). […] Sections were viewed and evaluated by two independent pathologists. Mean numbers of atypical mitoses were counted in control and treated tissues from 3 tumors (4 fields of 250 cells per tumor) for the 3 groups (Burger et al. 2005). Box plots were generated using SigmaPlot version 10 software and statistical significance between treatments calculated in SigmaPlot using the Student T-test.

[2] = tolerability in xenograft studies (body weight, deaths, MTD)
Method: For the first in vivo experiment, tumor fragments (5×5 mm) from untreated donor animals were implanted subcutaneously into both flanks of recipient mice. Treatment was initiated 6 days after transplantation (=day 0, median tumor volume of ˜70 mm^3). Animals were randomized into groups following Lindner's randomization tables and treated by oral gavage with 5 mg/kg/d RHPS4 or vehicle (phosphate buffered saline) respectively (n=5-8 animals per group). […] Drug administration was repeated twice weekly for 8 times (Q3dx8) after randomization. Tumor growth was followed twice weekly by serial caliper measurement, body weights were recorded, and tumor volumes were calculated using the standard formula (length×width^2)/2, where length is the largest dimension and width the smallest dimension perpendicular to the length (Alley et al., 2004; Geran et al., 1972). The median relative tumor volume was plotted against time. Relative tumor volumes were calculated for each single tumor by dividing the tumor volume on day X by that on day 0 (time of randomization). Growth curves were analyzed in terms of tumor inhibition (treated/control, T/C, calculated as median tumor weight of treated divided by median tumor weight of control animals times 100). Statistical data analysis was done using non-parametrical Wilcoxon Mann-Whitney statistics. Median relative tumor volumes of each treatment group were compared with those of the vehicle control groups. P values less than 0.05 were considered statistically significant. SPSS 2000, SYSTAT version 10 software was used.
To conduct combination treatment with Paclitaxel, after 4 serial propagations of RHPS4 treated tumor tissue in nude mice (FIG. 1), RHPS4 was combined with Paclitaxel. Single agent Paclitaxel was given at 20 mg/kg i.v. on days 1 and 15. In combination with RHPS4 (given at 5 mg/kg p.o. twice weekly), only a single dose of Paclitaxel (20 mg/kg i.v.) was administered on day 1. Tumor growth parameters and body weight were assessed as described above.

COS(=O)(=O)[O-].Cc1cc2c3c([n+](C)c4ccc(F)cc4c3c1)-c1cc(F)ccc1N2C [RHPS4, 3,11-difluoro-6,8,13-trimethyl-8H-quino[4,3,2-kl]acridinium methosulfate]
bulk cell growth, % of control (HEK293T cells; 1 mircoM RHPS4, HEK293T monolayer): 60%
induction of growth in MTT assay (HEK293T cells; eight dose levels 0.001-50 mircoM): no induction of growth
TRF [kb] ([1]; Passage #1): 5.1 kb
TRF [kb] ([1]; Passage #2): ~4.7 kb
TRF [kb] ([1]; Passage #3): ~3.4 kb
TRF [kb] ([1]; Passage #4): 4.2 kb
rate of TRF-length shortening ([1]; passage ~28 days): approximately 1 kb per passage
mitotic abnormalities compared to vehicle control (UXF1138L tumors; 5 mg/kg/d p.o.): significant induction of mitotic abnormalities; also recorded: increase in mitotic abnormalities
atypical mitosis, mean number (UXF1138L tumors; UXF1138L tumors passage 4, control 0.35): 1.25±0.19
Deaths [n/n], drug related death per mice per group ([2]; Passage #1): 0/5
Deaths [n/n], drug related death per mice per group ([2]; Passage #2): 0/6
Deaths [n/n], drug related death per mice per group ([2]; Passage #3): 0/8
Deaths [n/n], drug related death per mice per group ([2]; Passage #4): 0/5
tolerability ([2]; mouse, in vivo): well tolerated
1/2 maximal tolerated dose ([2]; oral, mouse strain used): 5 mg/kg/day
